The values below come from patent US20130225524A1, “Chemical Compounds” (priority 2010, published 2013).

The assay addresses lactate dehydrogenase A (LDH-A) (Homo sapiens, UniProt P00338). Kind of assay: biochemical.

Where a name gives a salt, the structure may show the parent alone.

Protocol: Assay buffer (50 mM potassium phosphate, pH 7.0, 50 mM NaCl, 0.25 mM CHAPS, 0.0025% BSA) is added to one column of a standard assay plate stamped with DMSO solutions of test compounds. A solution of LDH-A and NAD+ (final concentrations: 300 pM LDH-A and 150 uM NAD+) in assay buffer is added to remaining plate wells containing DMSO solutions of test compounds and DMSO only control wells and the mixtures incubated for 10 min at room temperature. A solution of lactate, resazurin, diaphorase (final concentrations: 2 mM lactate, 6.25 uM resazurin, 0.4 U/mL diaphorase) in assay buffer is added to all wells and the mixtures incubated for 30 min at room temperature. Stop solution (2 uL, components: assay buffer and 25 mM oxamate) is added to each well and the fluoresecence intensity increase (FLINT) measured at 590 nm on a ViewLux®imager.

Regarding `COc1ncc(-c2ccc3c(Nc4cc(C(=O)O)cc(C(C)C(C)C)c4)c(C(N)=O)cnc3c2)c(OC)n1` (stereo not shown) [Example 60, 3-({3-(aminocarbonyl)-7-[2,4-bis(methyloxy)-5-pyrimidinyl]-4-quinolinyl}amino)-5-(1,2-dimethylpropyl)benzoic acid, acetate salt], the IC50 was 63.1 nM. In other words, the double-digit nanomolar range.

In general, IC50 refers to the concentration that inhibits the measured activity by half. A high value points to weaker potency in that assay.
